# Test results as given in PMC12332667, “Role of Structural Modifications in Peptidomimetic Compounds as Potential Antimicrobial Agents against Staphylococcus aureus and Streptococcus pyogenes: Balancing Bioavailability, Safety, and Antimicrobial Activity” (ACS Omega, 2025).
# What was measured:
# [1] = tested on: human dermal fibroblast cell line (46BR.1N); assay: XTT cell proliferation assay, fibroblasts; assay type: cell-based; conditions: XTT; for effect on proliferation, in words: 48 and 72 h, 0.01–150 μg/mL
# Experimental: (§1) In our study, we used two distinct cell types: immortalized human HaCaT keratinocytes (DKFZ, Heidelberg, Germany) and a human dermal fibroblast cell line (46BR.1N). […] Cultures were maintained in a humidified atmosphere with 5% CO2 at 37 °C in 25 cm^2 culture flasks with the medium replenished every 2 days. The condition of the cells was monitored using optical microscopy. […] After 24 h of incubation, the medium was replaced with serum-free HG-DMEM containing appropriate concentrations of peptidomimetics. All solutions used in the experiments were prepared with double-distilled water or with the addition of ethanol under sterile conditions to ensure compatibility with the conditions of the bacteriological assay. For 72 h of incubation, half of the medium was replaced with fresh medium after 48 h, and cells were stimulated with peptides for a second time. The XTT cell proliferation assay was then performed according to the manufacturer’s instructions (Roche, Switzerland). Cells were treated with the peptides for either 48 or 72 h, followed by the addition of XTT reagent, and the plates were then incubated at 37 °C in a 5% CO2 environment for 4 h. Plate readings were taken using a standard plate reader at a wavelength of 490 nm (OD = 490 nm). […] Statistical significance was determined with a Mann–Whitney U test with statistical significance p ≤ 0.05. Analysis was performed with Statistica software, and graphs were prepared in GraphPad Prism.
# [2] = tested on: E. faecalis c.i.; assay: MIC/MBC broth microdilution, E. faecalis; assay type: cell-based, Enterococcus faecalis
# Experimental: (§2) S. aureus (ATCC 29213),S. pyogenes (ATCC 19615),Streptococcus agalactiae (ATCC 27956),Escherichia coli (ATCC 25922),Proteus vulgaris (ATCC 6896),K. pneumoniae (ATCC 700603) andP. aeruginosa (ATCC 10145) reference strains, as well asStaphylococcus cohnii, Enterococcus faecalis, Staphylococcus schleiferi, Staphylococcus intermedius and Streptococcus mutans clinical isolates, were used to test the antibacterial activity of the peptidomimetics. Bacteria were aerobically cultured for 18 h at 37 °C in plates with sterilized brain heart infusion (BHI) broth (Sigma-Aldrich, USA) media mixed with bacteriological agar (Sigma-Aldrich, USA) using the streak plate method. After 18 h, BHI broth was inoculated to 0.5 on the McFarland scale and diluted to approximately 10^5 CFU/mL. To achieve a final stock concentration of 1024 μg/mL, the peptidomimetics were dissolved in sterile water, and 5–10% of absolute ethanol or dimethyl sulfoxide (DMSO) was added. The antibacterial activities were determined by using the standard broth microdilution method of the National Committee for Clinical Laboratory Standards. The process involved adding serially diluted peptidomimetics to consecutive wells of a 96-well microtiter plate (Brand, Germany) holding media with microorganisms. The inoculated plates treated with peptides were then placed in an incubator at 37 °C for 18 h. The MIC value was determined as the lowest concentration of peptidomimetic at which there was no obvious growth (equal or more than 90% of the untreated sample). […] The lowest concentration yielding growth in no more than 3 colonies, corresponding to at least a 99.9% kill rate, was taken as MBC. Each biological replicate included control wells with the addition of water, DMSO, and ethanol as respective solvent controls. All experiments were conducted with consistent adherence to growth and sterility controls and were performed at least in technical triplicate with three biological repeats.
# [3] = tested on: E. coli ATCC 25922; assay: MIC/MBC broth microdilution, E. coli; assay type: cell-based, Escherichia coli
# Experimental: as §2
# [4] = tested on: P. vulgaris ATCC 6896; assay: MIC/MBC broth microdilution, P. vulgaris; assay type: cell-based, Proteus vulgaris
# Experimental: as §2
# [5] = tested on: S. cohnii c.i.; assay: MIC/MBC broth microdilution, S. cohnii; assay type: cell-based, Staphylococcus cohnii
# Experimental: as §2
# [6] = tested on: S. aureus ATCC 43300; assay: MIC/MBC broth microdilution, S. aureus; assay type: cell-based, Staphylococcus aureus; conditions: S. aureus
# [7] = tested on: S. agalactiae ATCC 27956; assay: MIC/MBC broth microdilution, S. agalactiae; assay type: cell-based, Streptococcus agalactiae; conditions: S. agalactiae
# Experimental: as §2
# [8] = tested on: P. aeruginosa ATCC 10145; assay: MIC/MBC broth microdilution, P. aeruginosa; assay type: cell-based
# Experimental: as §2
# [9] = tested on: immortalized human HaCaT keratinocytes; assay: XTT cell proliferation assay, keratinocytes; assay type: cell-based; conditions: for effect on proliferation, in words: 48 and 72 h, 0.01–150 μg/mL
# Experimental: as §1
# [10] = tested on: immortalized human keratinocytes (HaCaT); assay: LDH cytotoxicity test, keratinocytes; assay type: cell-based
# Experimental: (§3) In our study, we used two distinct cell types: immortalized human HaCaT keratinocytes (DKFZ, Heidelberg, Germany) and a human dermal fibroblast cell line (46BR.1N). […] Cultures were maintained in a humidified atmosphere with 5% CO2 at 37 °C in 25 cm^2 culture flasks with the medium replenished every 2 days. The condition of the cells was monitored using optical microscopy.
# (§4) Cell death in immortalized human keratinocytes (HaCaT) and fibroblasts (46BR.1N) was measured by quantifying the lactate dehydrogenase (LDH) activity using a commercial kit (Roche, Switzerland). Cells were seeded in 96-well plates at a density of 5000 cells per well in DMEM high glucose medium supplemented with 10% FBS. After 24 h of incubation, the medium was replaced with serum-free medium containing various concentrations of peptidomimetics (50, 100, and 150 μg/mL). After 48 h, supernatants were collected for LDH analysis. Plate readings were taken spectrophotometrically using a 450 nm wavelength. Cell death measurements were normalized to an untreated control (0%), with 1% Triton X-100 detergent used as a positive control to induce maximum LDH release, indicating maximal cytotoxicity. Statistical significance was determined with a Mann–Whitney U test with a statistical significance p ≤ 0.05. Analysis was performed with Statistica software (Krakow, Poland) and graphs were prepared in GraphPad Prism (Boston, USA).
# [11] = tested on: K. pneumoniae ATCC 700603; assay: MIC/MBC broth microdilution, K. pneumoniae; assay type: cell-based
# Experimental: as §2
# [12] = tested on: S. intemrdius c.i.; assay: MIC/MBC broth microdilution, S. intermedius; assay type: cell-based, Staphylococcus intermedius
# Experimental: as §2
# [13] = tested on: S. mutans c.i.; assay: MIC/MBC broth microdilution, S. mutans; assay type: cell-based, Streptococcus mutans
# Experimental: as §2
# [14] = tested on: S. schleiferi c.i.; assay: MIC/MBC broth microdilution, S. schleiferi; assay type: cell-based, Staphylococcus schleiferi
# Experimental: as §2
# [15] = tested on: S. pyogenes ATCC 19615; assay: MIC/MBC broth microdilution, S. pyogenes; assay type: cell-based, Streptococcus pyogenes; conditions: S. pyogenes
# Experimental: as §2
# [16] = tested on: fibroblasts (46BR.1N); assay: LDH cytotoxicity test, fibroblasts; assay type: cell-based
# Experimental: as §3, §4
# [17] = 48 h, 50, 100 and 150 μg/mL, vs 1% Triton X-100
smiles,measurement,setting,value
CC(C)C[C@H](NC(=O)[C@H](CCCCNC(=N)N)NC(=O)OCc1ccccc1)C(=O)N[C@H](CNC(=O)/C=C/c1ccccc1)C(C)C [Compound A-134],proliferation relative to control at 50 μg/mL,[1]; 50 μg/mL,approximately 75%
same,"effect on proliferation, in words",[1],pro-proliferating effect at lower concentrations followed by an antiproliferative effect at higher concentrations
same,MBC,[2]; water additive DMSO,512 µg/mL
same,MIC,[2]; water additive DMSO,256 µg/mL
same,MBC,[2]; water additive EtOH,512 µg/mL
same,MIC,[2]; water additive EtOH,512 µg/mL
same,MIC,[3]; water additive DMSO,> 512 µg/mL
same,MIC,[3]; water additive EtOH,> 512 µg/mL
same,MIC,[4]; water additive DMSO,> 512 µg/mL
same,MIC,[4]; water additive EtOH,> 512 µg/mL
same,MBC,[5]; water additive DMSO,32 µg/mL
same,MIC,[5]; water additive DMSO,32 µg/mL
same,MBC,[5]; water additive EtOH,32 µg/mL
same,MIC,[5]; water additive EtOH,32 µg/mL
same,MIC,[6]; H2O,32 µg/mL
same,MIC,[6]; water additive EtOH,32 µg/mL
same,MIC,[7]; water additive DMSO,32 µg/mL
same,MIC,[7]; water additive EtOH,32 µg/mL
same,MIC,[8]; water additive DMSO,> 512 µg/mL
same,MIC,[8]; water additive EtOH,> 512 µg/mL
same,proliferation relative to control at 50 μg/mL,"[9]; XTT, 50 μg/mL",approximately 75%
same,"effect on proliferation, in words",[9]; XTT,pro-proliferating effect at lower concentrations followed by an antiproliferative effect at higher concentrations
same,cytotoxicity (LDH),[10]; [17],≤ 50%
same,MIC,[11]; water additive DMSO,> 512 µg/mL
same,MIC,[11]; water additive EtOH,> 512 µg/mL
same,MBC,[12]; water additive DMSO,32 µg/mL
same,MIC,[12]; water additive DMSO,32 µg/mL
same,MBC,[12]; water additive EtOH,16 µg/mL
same,MIC,[12]; water additive EtOH,16 µg/mL
same,MBC,[13]; water additive DMSO,> 512 µg/mL
same,MIC,[13]; water additive DMSO,512 µg/mL
same,MIC,[13]; water additive EtOH,> 512 µg/mL
same,MIC,[14]; water additive DMSO,> 512 µg/mL
same,MIC,[14]; water additive EtOH,> 512 µg/mL
same,MIC,[15]; H2O,32 µg/mL
same,MBC,[15]; water additive DMSO,16 µg/mL
same,MIC,[15]; water additive DMSO,32 µg/mL
same,MBC,[15]; water additive EtOH,32 µg/mL
same,MIC,[15]; water additive EtOH,16 µg/mL
same,cytotoxicity (LDH),[16]; [17],≤ 50%
Cc1ccccc1COC(=O)N[C@@H](CCCNC(=N)N)C(=O)N[C@@H](CC(C)C)C(=O)N[C@H](CNC(=O)/C=C/c1ccccc1)C(C)C [Compound A-210],proliferation relative to control at 150 μg/mL (highest tested concentration),[1]; 150 μg/mL,50%
same,"effect on proliferation, in words",[1],negative impact
same,MBC,[2]; H2O,256 µg/mL
same,MBC,[2]; water additive DMSO,256 µg/mL
same,MBC,[2]; water additive EtOH,256 µg/mL
same,MIC,[2]; water additive EtOH,32 µg/mL
same,MIC,[3]; H2O,> 512 µg/mL
same,MIC,[3]; water additive DMSO,> 512 µg/mL
same,MIC,[3]; water additive EtOH,> 512 µg/mL
same,MBC,[4]; H2O,256 µg/mL
same,MBC,[4]; water additive DMSO,256 µg/mL
same,MIC,[5]; water additive DMSO,32 µg/mL
same,MIC,[5]; water additive EtOH,32 µg/mL
same,MIC,[6]; H2O,32 µg/mL
same,MIC,[6]; water additive DMSO,32 µg/mL
same,MBC,[6]; water additive EtOH,32 µg/mL
same,MIC,[6]; water additive EtOH,16 µg/mL
same,MIC,[7]; H2O,16 µg/mL
same,MBC,[7]; water additive DMSO,32 µg/mL
same,MIC,[7]; water additive DMSO,16 µg/mL
same,MIC,[7]; water additive EtOH,32 µg/mL
same,MIC,[8]; H2O,512 µg/mL
same,MIC,[8]; water additive DMSO,512 µg/mL
same,MBC,[8]; water additive EtOH,512 µg/mL
same,MIC,[8]; water additive EtOH,256 µg/mL
same,proliferation,[9]; 72 h,less than 50%
same,proliferation relative to control at 150 μg/mL (highest tested concentration),"[9]; XTT, 150 μg/mL",50%
same,"effect on proliferation, in words",[9]; XTT,negative impact
same,"cytotoxicity (LDH), in words","[10]; 48 h, 50-150 μg/mL",no negative effect at 50 μg/mL concentration
same,concentration at which cytotoxic effect starts,"[10]; LDH, 48 h",100 µg/mL
same,MIC,[11]; H2O,> 512 µg/mL
same,MIC,[11]; water additive DMSO,> 512 µg/mL
same,MIC,[11]; water additive EtOH,> 512 µg/mL
same,MBC,[12]; H2O,16 µg/mL
same,MIC,[12]; H2O,16 µg/mL
same,MBC,[12]; water additive DMSO,16 µg/mL
same,MIC,[12]; water additive DMSO,16 µg/mL
same,MBC,[12]; water additive EtOH,16 µg/mL
same,MIC,[12]; water additive EtOH,16 µg/mL
same,MIC,[13]; H2O,> 512 µg/mL
same,MIC,[13]; water additive DMSO,> 512 µg/mL
same,MIC,[13]; water additive EtOH,> 512 µg/mL
same,MBC,[14]; H2O,8 µg/mL
same,MIC,[14]; H2O,4 µg/mL
same,MBC,[14]; water additive DMSO,16 µg/mL
same,MIC,[14]; water additive DMSO,8 µg/mL
same,MBC,[14]; water additive EtOH,8 µg/mL
same,MIC,[14]; water additive EtOH,4 µg/mL
same,MIC,[15]; H2O,32 µg/mL
same,MIC,[15]; water additive DMSO,32 µg/mL
same,MIC,[15]; water additive EtOH,32 µg/mL
same,"cytotoxicity (LDH), in words","[16]; 48 h, 50-150 μg/mL",no negative effect at 50 μg/mL concentration
same,concentration at which cytotoxic effect starts,"[16]; LDH, 48 h",100 µg/mL
